The text below walks through data of ChEMBL document CHEMBL1149496, “Dissecting the determinants of cyclin-dependent kinase 2 and cyclin-dependent kinase 4 inhibitor selectivity” (J Med Chem, 2006).

In the assay the target is Cyclin-dependent kinase 4 (Homo sapiens, UniProt P11802). Put plainly: Inhibition of CDK4.
Cyclin-dependent kinase 4, sequence (P11802 whole entry): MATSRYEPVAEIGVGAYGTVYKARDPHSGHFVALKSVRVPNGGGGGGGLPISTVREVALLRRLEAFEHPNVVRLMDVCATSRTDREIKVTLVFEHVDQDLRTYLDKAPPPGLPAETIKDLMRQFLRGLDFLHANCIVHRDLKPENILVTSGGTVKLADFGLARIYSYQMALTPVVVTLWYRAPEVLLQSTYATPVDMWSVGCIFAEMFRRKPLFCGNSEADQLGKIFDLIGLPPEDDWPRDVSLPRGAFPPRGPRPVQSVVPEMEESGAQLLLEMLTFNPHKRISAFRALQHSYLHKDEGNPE

The compound `Cc1ccc(Cl)c(N(CC#N)c2cc(Nc3ccc(OC[C@@H](O)CN(C)C)cc3)ncn2)c1` came in with an IC50 of 47 nM.
